Source: patent publication US9157088B2, “Transferases, epimerases, polynucleotides encoding these and uses thereof” (priority 2007, dated 2015)
“And” between values parts separate entries of the source, which are not always exact repeats. Equal values may be shown once.

How the values were obtained:
[1] = biological target: T1, kiwifruit GDP-L-Galactose Guanyltransferase EST 319998 (Actinidia chinensis, UniProt A0A2R6QD99); assay: Continuous coupled assay of transferase activity with guanyl acceptors; conditions: for % of D-mannose-1P / Rate: sugar phosphate as guanyl acceptor, epimerase generated substrate; for Rate: N = 6; for ability to act as acceptor for the guanyl moiety / vamax / Km: FIG. 3; for ability to act as acceptor for the guanyl moiety: physiological concentrations; for vamax / Km: varying concentrations of the guanyl acceptor, continuous coupled assay
Description: Expression of genes in E. coli. The EST 319998 from young fruit of Actinidia chinensis and At4g26850 were each cloned into pET30A (Novagene, USA), their sequence checked and expressed in E. coli. The N terminal His6 tag was used to purify the protein. An empty vector control was expressed and purified in parallel. Techniques were essentially as described earlier (Laing et al., 2004).
(§1) L-Galactose dehydrogenase (Gen Bank accession AA018639 (EST 56121), 1.5 ug/assay) was cloned from an EST derived from an A. deliciosa (kiwifruit) shoot bud library with a maltose binding protein presequence and assayed as described previously (Laing et al., 2004). L-Galactose-1-Phosphate phosphatase was cloned from Arabidopsis thaliana (At3g02870, 3.1 ug/assay) and assayed as described (Laing et al., 2004). GDP-D-Mannose 3′,5′-Epimerase (198296) was cloned from dormant kiwifruit (A. deliciosa) buds three days after hydrogen cyanamide treatment and assayed as described (Wolucka et al., 2001). The former two enzymes are highly specific as to their substrates (Laing et al., 2004; Laing et al., 2004).
The assay for GDP-L-Galactose-1-Phosphate Guanyltransferase was run in 20 mM TrisCl, pH 8.0, GDP-L-Galactose, with 1 mM D-Mannose-1-Phosphate. […] In the latter case, 0.21 mg of epimerase was incubated with GDP-D-Mannose in 20 mM Tris Cl pH 8 in a total volume of 400 μL (see Wolucka et al., 2001) for 30 minutes at 20 C and then used directly in the assay at a 1 to 20 dilution. Assays were either terminated after 10 minutes by heating to 100 C for three minutes, or directly coupled to the phosphatase and L-Galactose dehydrogenase to measure product formation during the assay. Heat terminated assays were cooled on ice, centrifuged to remove precipitated protein and L-Galactose assayed using the coupling enzymes described above (see also (Laing et al., 2004)).
The applicants used two assays to characterise the enzyme, using two sources of the substrate GDP-L-Galactose. The first assay used the E. coli expressed coupling enzymes L-Galactose-1-Phosphate phosphatase and L-Galactose dehydrogenase. […] The applicants either measured the product formed by adding the coupling enzymes in the assay and measuring the time course of NADH formed, or by stopping the reaction after 10 minutes by boiling for 3 minutes and centrifuging. To this latter fixed time assay, the applicants then either adding coupling enzymes to measure L-Galactose production or using the LCMS to measure the products. The LCMS was used only to confirm the results of the coupled enzyme reaction and to measure the reverse reaction.

[2] = biological target: T1, kiwifruit GDP-L-Galactose Guanyltransferase EST 319998; assay: Fixed time transferase assay, aliquots measured by LCMS; type: biochemical; conditions: acceptor Gal1P (reverse reaction)
Description: The assay for GDP-L-Galactose-1-Phosphate Guanyltransferase was run in 20 mM TrisCl, pH 8.0, GDP-L-Galactose, with 1 mM D-Mannose-1-Phosphate. GDP-L-Galactose was either used directly from the Glycoteam product (in which case high backgrounds were observed due to contaminating L-Galactose-1-Phosphate) or GDP-L-Galactose was generated using the epimerase. In the latter case, 0.21 mg of epimerase was incubated with GDP-D-Mannose in 20 mM Tris Cl pH 8 in a total volume of 400 μL (see Wolucka et al., 2001) for 30 minutes at 20 C and then used directly in the assay at a 1 to 20 dilution. Assays were either terminated after 10 minutes by heating to 100 C for three minutes, or directly coupled to the phosphatase and L-Galactose dehydrogenase to measure product formation during the assay. Heat terminated assays were cooled on ice, centrifuged to remove precipitated protein and L-Galactose assayed using the coupling enzymes described above (see also (Laing et al., 2004)). Assays for L-Galactose were linear with added L-Galactose-1-Phosphate over the range measured. Backgrounds were run using the empty vector control, which gave the same result as a boiled enzyme control.
As an alternative assay, LCMS was used to identify the forward reaction described above as well measure as the reverse pyrophosphorylase reaction where GTP (1 mM) and L-Galactose-1-Phosphate were incubated as above and the formation of GDP-L-Galactose followed. GDP-D-Mannose and GDP-L-Galactose were separated by HPLC before MS. LC-MS employed an LTQ linear ion trap mass spectrometer fitted with an ESI interface (ThermoQuest, Finnigan, San Jose, Calif., USA) coupled to an EttanTM MDLC (GE Healthcare Bio-Sciences). Separation of GDP-D-Mannose and GDP-L-Galactose was achieved using a Hypercarb column (Thermo Electron, USA), 100×2.1 mm maintained at 40 C. Solvents were (A) 50 mM ammonium acetate and (B) acetonitrile and the flow rate was 200 uL/min. The initial mobile phase, 5% B was held for 3 min, then ramped linearly to 20% B at 11 min, held for 5 min, then ramped linearly to 70% B at 19 min and held for 5 min before resetting to the original conditions. Retention times for GDP-D-Mannose and GDP-L-Galactose were 16.8 min and 17.5 min, respectively.
MS data was acquired in the negative mode using both a selective reaction monitoring (SRM) method SRM m/z 604>m/z 344, 362, 424, 442 and a selected ion monitoring (SIM) method SIM m/z 604. This SIM method monitors only the (M-H)— ion for GDP-D-Mannose and GDP-L-Galactose while the SRM method monitors the distinctive daughter ions formed by fragmenting the precursor ion (M-H)— for both compounds. Both methods maximise sensitivity by screening out any chemical noise from other compounds present. The ESI voltage, capillary temperature, sheath gas pressure, sweep gas and auxiliary gas were set at −10 V, 350° C., 25 psi, 3 psi, and 3 psi, respectively. Separation of D-Mannose-1-Phosphate and L-Galactose-1-Phosphate was achieved isocratically using a Hypercarb column (Thermo Electron, USA), 100×2.1 mm maintained at 40° C. Solvents were (A) 20 mM ammonium acetate and (B) methanol and the flow rate was 200 uL/min. Using a mobile phase of 2% B the retention times for D-Mannose-1-Phosphate and L-Galactose-1-Phosphate were 4.3 min and 4.9 min, respectively. MS data was acquired in the negative mode using both a selective reaction monitoring (SRM) method SRM m/z 259>m/z 79, 97 and a selected ion monitoring (SIM) method SIM m/z 259. […]

[3] = system: L-Galactose dehydrogenase; assay: L-Galactose dehydrogenase substrate specificity; type: biochemical, A. deliciosa (kiwifruit)
Description: as §1
The applicants used two assays to characterise the enzyme, using two sources of the substrate GDP-L-Galactose. The first assay used the E. coli expressed coupling enzymes L-Galactose-1-Phosphate phosphatase and L-Galactose dehydrogenase. […] The dehydrogenase is specific to L-Galactose, not reacting with D-Mannose or D-Galactose or a range of other sugars (Gatzek et al., 2002; Laing et al., 2004) except for L-Gulose. […] Consequently, our coupled assay would measure primarily L-Galactose and also L-Gulose. The applicants either measured the product formed by adding the coupling enzymes in the assay and measuring the time course of NADH formed, or by stopping the reaction after 10 minutes by boiling for 3 minutes and centrifuging. To this latter fixed time assay, the applicants then either adding coupling enzymes to measure L-Galactose production or using the LCMS to measure the products. The LCMS was used only to confirm the results of the coupled enzyme reaction and to measure the reverse reaction.

[4] = system: Tobacco (Nicotiana benthamiana) leaves; assay: Leaf ascorbate after transient transformation of tobacco leaves; type: in vivo; conditions: transient expression with P19
Excerpt: Tobacco (Nicotiana benthamiana) was transiently transformed with Agrobacterium containing the kiwifruit gene for GDP-L-Galactose Guanyltransferase (EST 319998) cloned in pGreen (Hellens et al., 2000) mixed with Agrobacterium containing the gene for the silencing suppressor P19 as previously described (Hellens et al., 2005). Controls were run using Agrobacterium containing P19 in pGreen alone. Tobacco leaves were harvested 9 days after transformation and frozen in liquid nitrogen.
Ascorbate was extracted as described previously in metaphosphoric acid without reducing agent (Davey et al., 2003; Rassam and Laing, 2005). […]

T1 sequence (A0A2R6QD99 entry or part of it): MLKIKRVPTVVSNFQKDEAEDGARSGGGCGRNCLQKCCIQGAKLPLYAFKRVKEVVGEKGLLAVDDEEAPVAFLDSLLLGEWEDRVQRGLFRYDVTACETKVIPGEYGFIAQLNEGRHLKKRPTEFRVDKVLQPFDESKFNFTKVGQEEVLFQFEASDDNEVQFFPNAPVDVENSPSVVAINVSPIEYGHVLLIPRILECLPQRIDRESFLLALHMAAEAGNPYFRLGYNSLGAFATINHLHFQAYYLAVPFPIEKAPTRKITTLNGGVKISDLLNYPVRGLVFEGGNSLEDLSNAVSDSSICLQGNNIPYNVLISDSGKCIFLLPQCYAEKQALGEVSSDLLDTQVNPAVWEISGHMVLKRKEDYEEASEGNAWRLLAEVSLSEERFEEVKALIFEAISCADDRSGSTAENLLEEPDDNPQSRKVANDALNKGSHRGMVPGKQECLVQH

O=P(O)(O)O[C@H]1O[C@H](CO)[C@H](O)[C@H](O)[C@H]1O [D-Galactose-1-P]
% of D-mannose-1P [1]: 113%
Rate [1]: 0.38 nmoles/sec/ug protein

O=P(O)(O)O[C@H]1O[C@H](CO)[C@@H](O)[C@H](O)[C@H]1O [D-Glucose-1-P]
% of D-mannose-1P [1]: 106% and 74%
Rate [1]: 0.35 nmoles/sec/ug protein and 0.24 nmoles/sec/ug protein

O=P(O)(O)OC[C@H]1OC(O)[C@H](O)[C@@H](O)[C@@H]1O (stereo partly drawn) [D-Glucose-6-P]
rate relative to the best acceptors ([1]; guanyl acceptor, Table 2): about 25%
% of D-mannose-1P [1]: 24%
Rate [1]: 0.08 nmoles/sec/ug protein

O=P(O)(O)O[C@H]1O[C@H](CO)[C@@H](O)[C@H](O)[C@@H]1O [D-Mannose-1-P, D-Mannose-1-Phosphate]
ability to act as acceptor for the guanyl moiety [1]: better acceptor for the guanyl moiety than phosphate or pyrophosphate
% of D-mannose-1P [1]: 100%
Rate [1]: 0.33 nmoles/sec/ug protein
vamax [1]: 0.17±0.009 nmoles sec^−1 ug^−1 protein

Nc1nc2c(ncn2[C@@H]2O[C@H](COP(=O)(O)OP(=O)(O)O[C@H]3O[C@H](CO)[C@@H](O)[C@H](O)[C@@H]3O)[C@@H](O)[C@H]2O)c(=O)[nH]1 [GDPMan, GDP-D-Mannose]
transferase activity, LCMS ([2]; 0.057 ug protein): 0 nmoles/sec/ug protein
transferase activity, LCMS ([2]; 1.14 ug protein): 0 nmoles/sec/ug protein

Nc1nc2c(ncn2[C@@H]2O[C@H](COP(=O)(O)OP(=O)(O)OP(=O)(O)O)[C@@H](O)[C@H]2O)c(=O)[nH]1 [GTP]
transferase activity, LCMS ([2]; 0.057 ug protein): 0 nmoles/sec/ug protein
transferase activity, LCMS ([2]; 1.14 ug protein): 0 nmoles/sec/ug protein

O=C[C@@H](O)[C@@H](O)[C@H](O)[C@@H](O)CO [L-Gulose]
KM (substrate) relative to L-Galactose [3]: 30 times
maximum velocity with L-Gulose relative to L-Galactose [3]: approximately 2.5 fold
activity compared with L-Galactose ([3]; at limiting substrate concentrations): about 8%

O=P(O)(O)O [phosphate, inorganic phosphate]
ability to act as acceptor for the guanyl moiety [1]: reaction was seen
Km [1]: 4400 ± 2000 µM
vamax [1]: 0.12±0.03 nmoles sec^−1 ug^−1 protein

O=P(O)(O)OP(=O)(O)O [pyrophosphate, inorganic pyrophosphate]
ability to act as acceptor for the guanyl moiety [1]: reaction was seen
Km [1]: 160 ± 50 µM
vamax [1]: 0.032±0.002 nmoles sec^−1 ug^−1 protein

B1: 82552_Md: GDP-L-Galactose Guanyltransferase from Malus x domesticus (apple) (protein)
chain: MLRIKRVPTVVSNYQKDEAEEVARRVGGCGRNCLNQCCIPGAKLPLYAFKKLNVNDGDTGLLGREKREPPVAFLDSLLLGEWEDRMQRGLFRYDVTACETKVIPGQFGFIAQLNEGRHLKKRPTEFRVDKVLQPFDGSKFNFTKVGQEEVLFQFEASKDGEVQFFPSAPIDVESSPSVVAINVSPIEYGHVLLIPHILERLPQRIDRESFLLALHMAAEAGNPYFRLGYNSLGAFATINHLHFQAYYLAVTFPIEKAPTKKISTLNAEVKVSELLNYPVRGLVFEGGNTLQDLSNTVSDACICLQENNIPYNVLISDSGKRIFLVPQCYAEKQALGEVRAEILDTQVNPAVWEISGHMVLKRKKDYDEASDENAWKLLAEVSLSEERFLEVNALIFEGIASGDNGNENLLKDPEVKPRSHEEVNTINKRVHCSAVNEQICRVFTM
modifications: Malus x domesticus
effect on leaf ascorbate [4]: increased ascorbate levels in the leaf
